From ChEMBL document CHEMBL3351582, “A simple, general approach of allosteric coagulation enzyme inhibition through monosulfated hydrophobic scaffolds” (Bioorg Med Chem Lett, 2014)

Tests used:
Prothrombin = Prothrombin (Homo sapiens, UniProt P00734); assay: Inhibition of human thrombin using spectrozyme TH as substrate by spectrophotometric assay
Coagulation factor XI = Coagulation factor XI (Homo sapiens, UniProt P03951); assay: Inhibition of human factor 11a by spectrophotometric assay
Coagulation factor X = Coagulation factor X (Homo sapiens, UniProt P00742); assay: Inhibition of human factor 10a by spectrophotometric assay
Sequence of Coagulation factor X (P00742 41-179 limits assumed): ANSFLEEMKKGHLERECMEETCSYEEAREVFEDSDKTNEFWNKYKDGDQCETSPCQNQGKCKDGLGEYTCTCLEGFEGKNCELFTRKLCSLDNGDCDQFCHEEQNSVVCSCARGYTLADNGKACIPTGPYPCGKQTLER
Sequence of Coagulation factor X (P00742 235-488 limits assumed): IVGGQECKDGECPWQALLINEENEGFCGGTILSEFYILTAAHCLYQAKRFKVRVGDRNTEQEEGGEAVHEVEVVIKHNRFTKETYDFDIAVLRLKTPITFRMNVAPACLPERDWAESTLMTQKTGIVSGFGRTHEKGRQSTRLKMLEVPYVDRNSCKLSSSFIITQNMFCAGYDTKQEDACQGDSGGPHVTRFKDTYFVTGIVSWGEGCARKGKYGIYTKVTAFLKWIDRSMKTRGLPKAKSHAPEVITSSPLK

[1] = Anticoagulant activity in human […] assessed as concentration required to double prothrombin time; assay type: functional
[2] = Anticoagulant activity in human […] assessed as concentration required to double activated partial thromboplastin time; assay type: functional

Sequence of Coagulation factor XI (P03951 19-387 limits assumed): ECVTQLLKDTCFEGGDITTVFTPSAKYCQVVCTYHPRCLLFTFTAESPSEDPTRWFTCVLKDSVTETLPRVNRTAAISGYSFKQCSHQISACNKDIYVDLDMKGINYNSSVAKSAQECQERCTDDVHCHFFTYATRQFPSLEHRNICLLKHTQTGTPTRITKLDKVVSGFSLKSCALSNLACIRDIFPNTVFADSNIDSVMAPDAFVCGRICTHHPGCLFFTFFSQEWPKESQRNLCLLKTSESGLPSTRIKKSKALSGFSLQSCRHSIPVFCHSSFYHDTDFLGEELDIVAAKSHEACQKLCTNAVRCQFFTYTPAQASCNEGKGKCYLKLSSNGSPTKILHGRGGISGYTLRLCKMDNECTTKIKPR
Sequence of Coagulation factor XI (P03951 388-625 limits assumed): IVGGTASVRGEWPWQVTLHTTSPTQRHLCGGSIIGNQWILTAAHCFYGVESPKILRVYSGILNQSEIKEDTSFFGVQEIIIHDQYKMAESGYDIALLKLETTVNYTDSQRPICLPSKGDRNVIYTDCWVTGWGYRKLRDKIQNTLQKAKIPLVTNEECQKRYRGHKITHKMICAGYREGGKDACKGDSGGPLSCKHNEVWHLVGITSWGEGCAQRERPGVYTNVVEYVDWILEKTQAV

| IC50 (Prothrombin) [µM] | IC50 (Coagulation factor XI; read-out: IC50) [µM] | IC50 (Coagulation factor X; read-out: IC50) [µM] | IC50 (Coagulation factor XI) | IC50 (Coagulation factor X) | SMILES | 2PT [1] [µM] | 2aPTT [2] [µM] |
| --- | --- | --- | --- | --- | --- | --- | --- |
| 327 | 118 | 195 | – | – | CCOC(=O)c1c(COc2cc3c(C(=O)OCC)c(Cc4ccccc4)oc3cc2OC)[nH]c2ccc(OS(=O)(=O)[O-])cc12.[Na+] | 2361 | 1021 |
| 304 | 86.9 | 344 | – | – | CCOC(=O)c1c(COc2cc3c(C(=O)OCC)c(COc4cc5c(C(=O)OCC)c(C)oc5cc4OC)oc3cc2OC)[nH]c2ccc(OS(=O)(=O)[O-])cc12.[Na+] | 845 | 755 |
| 425 | 220 | 229 | – | – | CCOC(=O)c1c(C)[nH]c2ccc(OCc3c(C(=O)OCC)c4cc(OS(=O)(=O)[O-])ccc4n3C(=O)OC(C)(C)C)cc12.[Na+] | 1475 | 424 |
| 146 | 124 | 352 | – | – | COc1cc2occ(C(=O)OC(C)(C)C)c2cc1OCc1nc2ccc(OS(=O)(=O)O)cc2s1 | – | – |
| 327 | – | – | Not Active | Not Active | Cc1nc2ccc(OCc3nc4ccc(OS(=O)(=O)[O-])cc4s3)cc2s1.[Na+] | – | – |
